Measurements taken from patent US20050192314A1, “Urea derivatives as C-kit modulators” (Ambit Biosciences Corporation, priority 2003, published 2005).

Key:
KIT(JMminus) = biological target: T1, KIT(JMminus) (Homo sapiens, UniProt P10721); assay: Binding constant (Kd) measurement, phage-displayed kinase competition binding assay: KIT(JMminus)
T1 construct: KIT(JMminus); made in house
Text: (§1) The term “ND” represents non-determined values.

KIT(DKIN) = biological target: T2, KIT(DKIN) (Homo sapiens, UniProt P10721); assay: Binding constant (Kd) measurement, phage-displayed kinase competition binding assay: KIT(DKIN)
T2 construct: KIT(DKIN); made in house
T2 sequence (P10721 589-937 limits assumed): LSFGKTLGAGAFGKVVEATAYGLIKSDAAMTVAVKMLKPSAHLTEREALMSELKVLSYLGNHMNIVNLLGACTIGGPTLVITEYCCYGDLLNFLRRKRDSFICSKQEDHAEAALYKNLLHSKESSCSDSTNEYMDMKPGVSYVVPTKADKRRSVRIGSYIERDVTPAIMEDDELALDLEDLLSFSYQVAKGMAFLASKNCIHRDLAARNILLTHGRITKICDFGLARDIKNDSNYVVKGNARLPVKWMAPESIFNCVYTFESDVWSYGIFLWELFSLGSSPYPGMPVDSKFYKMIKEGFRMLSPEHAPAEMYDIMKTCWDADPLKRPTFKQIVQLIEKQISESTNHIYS
Text: as §1

T1 sequence (P10721 589-937 limits assumed): as above

SMILES	Kd (KIT(JMminus))	Kd (KIT(DKIN))
CC(C)(C)c1cc(NC(=O)Nc2ccc(Nc3nc(N)nc4[nH]cnc34)cc2)no1 [Compound O6]	< 100 nM	–
CC(C)(C)c1cc(NC(=O)Nc2ccc(NC(=O)c3nnsc3Sc3ccc(C(F)(F)F)cc3)cc2)no1 [Compound N179]	< 100 nM	–
CC(C)(C)c1cc(NC(=O)Nc2ccc(NC(=O)c3cscn3)cc2)no1 [Compound N57]	< 100 nM	–
CC(C)(C)c1cc(C(=O)Nc2ccc(NC(=O)Nc3cc(C(C)(C)C)on3)cc2)n(-c2ccccc2)n1 [Compound N78]	< 100 nM	–
CC(C)(C)c1cc(NC(=O)Nc2ccc(NC(=O)c3nn(-c4cccc(C(F)(F)F)c4)c(=O)cc3O)cc2)no1 [Compound N185]	< 100 nM	–
COc1ccc(C(=O)c2c[nH]c(C(=O)Nc3ccc(NC(=O)Nc4cc(C(C)(C)C)on4)cc3)c2)cc1 [Compound N177]	100 to 1000 nM	–
CC(=O)c1c[nH]c(C(=O)Cc2ccc(NC(=O)Nc3cc(C(C)(C)C)on3)cc2)c1 [Compound N43]	< 100 nM	–
COc1ccnc(Nc2ccc(C(=O)Nc3ccc(NC(=O)Nc4cc(C(C)(C)C)on4)cc3)cc2)n1 [Compound N51]	< 100 nM	–
CC(C)c1nnsc1C(=O)Nc1ccc(NC(=O)Nc2cc(C(C)(C)C)on2)cc1 [Compound N182]	100 to 1000 nM	–
CC(C)(C)c1cc(NC(=O)Nc2ccc3c(c2)OCO3)no1 [Compound A56]	100 to 1000 nM	–
CC(C)(C)c1cc(NC(=O)Nc2ccc(NC(=O)Cc3sc(-c4ccc(Cl)cc4)nc3-c3ccccc3)cc2)no1 [Compound N66]	< 100 nM	–
CC(C)(C)c1cc(NC(=O)Nc2ccc(NC(=O)c3cc4cccc5c4n(c3=O)CC5)cc2)no1 [Compound N60]	< 100 nM	–
CC(C)(C)c1cc(NC(=O)Nc2ccc(NC(=O)c3cc(Br)cn(Cc4ccccc4)c3=O)cc2)no1 [Compound N67]	< 100 nM	–
CC(C)(C)c1cc(NC(=O)Nc2ccc(NC(=O)CNCC(=O)Nc3ccccc3)cc2)no1 [Compound N72]	< 100 nM	–
COc1cc(C(=O)Nc2ccc(NC(=O)Nc3cc(C(C)(C)C)on3)cc2)nc(OC)n1 [Compound N162]	< 100 nM	–
CC(C)(C)c1cc(NC(=O)Nc2ccc(NC(=O)C3=Cc4cc(F)cc(S(C)(=O)=O)c4C3)cc2)no1 [Compound N62]	< 100 nM	–
COc1cc(OC)nc(Oc2cccnc2C(=O)Nc2ccc(NC(=O)Nc3cc(C(C)(C)C)on3)cc2)n1 [Compound N56]	100 to 1000 nM	–
CC(C)(C)c1cc(NC(=O)Nc2ccc(NC(=O)c3cn4c(n3)sc3ccccc34)cc2)no1 [Compound N73]	< 100 nM	–
COc1cc(OC)nc(C2CCCCC2C(=O)Nc2ccc(NC(=O)Nc3cc(C(C)(C)C)on3)cc2)n1 (centres unmarked) [Compound N129]	< 100 nM	–
COc1cc(OC)nc(Nc2cccc(C(=O)Nc3ccc(NC(=O)Nc4cc(C(C)(C)C)on4)cc3)c2)n1 [Compound N49]	< 100 nM	–
CC(C)(C)c1cc(NC(=O)Nc2ccc(NC(=O)c3cccc[n+]3[O-])cc2)no1 [Compound N81]	< 100 nM	–
CC(C)(C)c1cc(NC(=O)Nc2ccc(NC(=O)Cc3noc4ccccc34)cc2)no1 [Compound N80]	< 100 nM	–
CC(C)(C)c1cc(NC(=O)Nc2ccc(Nc3cc(N)nc(N)n3)cc2)no1 [Compound O7]	< 100 nM	–
CC(C)(C)c1cc(NC(=O)Nc2ccc(NC(=O)c3sccc3OCc3cccc(C(F)(F)F)c3)cc2)no1 [Compound N183]	< 100 nM	–
CC(C)(C)c1cc(NC(=O)Nc2ccc(NC(=O)c3cc(O)c4cccc(O)c4n3)cc2)no1 [Compound N176]	1000 to 10000 nM	–
CC(C)(C)c1cc(NC(=O)Nc2ccc(NC(=O)c3nnsc3Cc3ccc(Cl)cc3)cc2)no1 [Compound N71]	100 to 1000 nM	–

SMILES	Kd (KIT(JMminus))	Kd (KIT(DKIN))
CC(C)(C)c1cc(NC(=O)Nc2ccc(NC(=O)c3cc(N4CCOCC4)nc(N4CCOCC4)c3)cc2)no1 [Compound N54]	< 100 nM	–
CC(C)(C)c1cc(NC(=O)Nc2ccc(NC(=O)c3ccc(Oc4ccnc(C(=O)O)c4)cc3)cc2)no1 [Compound N166]	< 100 nM	–
CC(C)(C)c1cc(NC(=O)Nc2ccc(NC(=O)c3ccccc3O)cc2)no1 [Compound N69]	1000 to 10000 nM	–
Cc1nc(-c2ccc(Cl)cc2)sc1C(=O)Nc1ccc(NC(=O)Nc2cc(C(C)(C)C)on2)cc1 [Compound N184]	< 100 nM	–
CC(C)(C)c1cc(NC(=O)Nc2ccc([N+](=O)[O-])cc2)no1 [Compound A21]	< 100 nM	–
COc1cc(OC)nc(Sc2ccccc2C(=O)Nc2ccc(NC(=O)Nc3cc(C(C)(C)C)on3)cc2)n1 [Compound N47]	< 100 nM	–
CC(C)(C)c1cc(NC(=O)Nc2ccc(NC(=O)c3cc4cc(F)cc(S(C)(=O)=O)c4[nH]3)cc2)no1 [Compound N58]	100 to 1000 nM	–
Cc1cc(NC(=O)c2cn3nc(Cl)ccc3n2)ccc1NC(=O)Nc1cc(C(C)(C)C)on1 [Compound N169]	< 100 nM	–
Cc1ccc(-c2nc(C(=O)Nc3ccc(NC(=O)Nc4cc(C(C)(C)C)on4)cc3)cs2)cc1 [Compound N178]	< 100 nM	–
CC(C)(C)c1cc(NC(=O)Nc2ccc(NC(=O)c3cc(-c4ccc(O)cc4)cs3)cc2)no1 [Compound N77]	< 100 nM	–
CN(C)c1ccc(C(=O)Nc2ccc(NC(=O)Nc3cc(C(C)(C)C)on3)cc2)cn1 [Compound N159]	< 100 nM	–
CC(C)c1cc(NC(=O)Nc2ccc(NC(=O)C3CCN(c4ncc(C(F)(F)F)cc4Cl)CC3)cc2)no1 [Compound N59]	100 to 1000 nM	–
COc1cc(NC(=O)c2cn3nc(Cl)ccc3n2)ccc1NC(=O)Nc1cc(C(C)(C)C)on1 [Compound N171]	< 100 nM	–
COc1ccc(NC(=O)Nc2cc(C(C)(C)C)on2)cc1OC [Compound A55]	1000 to 10000 nM	–
Cc1cc(NC(=O)[C@](C)(O)CSc2ccc(F)cc2)ccc1NC(=O)Nc1cc(C(C)(C)C)on1 [Compound N170]	< 100 nM	–
CC(C)(C)c1cc(NC(=O)Nc2ccc(NC(=O)c3csc(Cc4cccc(C(F)(F)F)c4)n3)cc2)no1 [Compound N180]	< 100 nM	–
Cc1nc(-c2ccccc2)sc1C(=O)Nc1ccc(NC(=O)Nc2cc(C(C)(C)C)on2)cc1 [Compound N181]	< 100 nM	–
CC(C)(C)c1cc(NC(=O)Nc2ccc(NC(=O)c3cc4cccnc4nc3C(F)(F)F)cc2)no1 [Compound N61]	100 to 1000 nM	–
CC(C)(C)c1cc(NC(=O)Nc2ccc(NC(=O)c3nocc3C(C)(C)C)cc2)no1 [Compound N82]	< 100 nM	–
COc1cc(OC)nc(N(C)c2cccc(C(=O)Nc3ccc(NC(=O)Nc4ccon4)cc3)c2)n1 [Compound N53]	< 100 nM	–
COC(=O)c1ccc(C(=O)Nc2ccc(NC(=O)Nc3cc(C(C)(C)C)on3)cc2)nc1 [Compound N12]	–	100 to 1000 nM
CC(C)(C)c1cc(NC(=O)Nc2ccc(NC(=O)C(N)Cc3ccccc3F)cc2)no1 (centres unmarked) [Compound N42]	–	1000 to 10000 nM
Cc1ccc(NC(=O)Nc2cc(C(C)(C)C)on2)cc1 [Compound A33]	–	100 to 1000 nM
CC(=O)c1ccc(N2CCC(C(=O)Nc3ccc(NC(=O)Nc4cc(C(C)(C)C)on4)cc3)CC2)cc1 [Compound N65]	< 100 nM	–
CC(C)Oc1ccc(NC(=O)Nc2cc(C(C)(C)C)no2)cc1 [Compound G33]	–	< 100 nM
CC(C)(C)c1cc(NC(=O)Nc2ccc(OCCc3ccccc3F)cc2)no1 [Compound G25]	–	100 to 1000 nM

SMILES	Kd (KIT(JMminus))	Kd (KIT(DKIN))
Cc1cnc(C(=O)Nc2ccc(NC(=O)Nc3cc(C(C)(C)C)on3)cc2)c(C(=O)O)n1 [Compound N160]	< 100 nM	–
CC(C)(C)c1cc(NC(=O)Nc2ccc(NC(=O)Cc3ccccc3)cc2)no1 [Compound N35]	–	100 to 1000 nM
CC(C)(C)c1cc(NC(=O)Nc2ccc(OCCc3ccccn3)cc2)no1 [Compound G27]	–	100 to 1000 nM
CC(C)(C)c1cc(NC(=O)Nc2ccc(NC(=O)c3cc4cc(Br)ccc4s3)cc2)no1 [Compound N126]	–	1000 to 10000 nM
CC(C)(CO)c1cc(NC(=O)Nc2ccc(OCc3ccccc3)cc2)on1 [Compound G2]	–	100 to 1000 nM
C=CCOc1ccc(NC(=O)Nc2cc(C(C)(C)C)no2)cc1 [Compound G32]	–	< 100 nM
CC(C)(C)c1cc(NC(=O)Nc2ccc(NC(=O)c3nccc4ccccc34)cc2)no1 [Compound N117]	< 100 nM	–
CC(C)(C)c1cc(NC(=O)Nc2ccc(NC(=O)c3ccccc3)cc2)no1 [Compound N34]	–	100 to 1000 nM
CC(C)(C)c1cc(NC(=O)Nc2ccc(CCc3ccccc3)cc2)no1 [Compound A15]	–	100 to 1000 nM
CC(C)(C)c1cc(NC(=O)Nc2ccncc2)no1 [Compound A53]	–	1000 to 10000 nM
CC(C)(C)c1cc(NC(=O)Nc2ccc(NC(=O)c3ccncc3)cc2)no1 [Compound N167]	–	100 to 1000 nM
CC(C)(C)c1cc(NC(=O)Nc2ccc(NC(=O)c3cnc4ccccc4c3)cc2)no1 [Compound N108]	–	100 to 1000 nM
O=C(Nc1ccccc1)Nc1ccc(-n2cnc(Cl)c2Cl)cc1 [Compound Z65]	–	1000 to 10000 nM
CC(C)(C)c1cc(NC(=O)Nc2ccc(C(=O)NCc3ccccc3)cc2)no1 [Compound N89]	–	100 to 1000 nM
CC(C)(C)c1cc(NC(=O)Nc2ccc(NC(=O)C3CCCCC3)cc2)no1 [Compound N91]	–	1000 to 10000 nM
COc1cc(NC(=O)CCC(=O)N2CCNC(=O)CC2)ccc1NC(=O)Nc1cc(C(C)(C)C)on1 [Compound N172]	100 to 1000 nM	–
COc1cccc(-c2ccc(C(=O)Nc3ccc(NC(=O)Nc4cc(C(C)(C)C)on4)cc3)o2)c1 [Compound N105]	–	100 to 1000 nM
COc1cc(C(=O)Nc2ccc(NC(=O)Nc3cc(C(C)(C)C)on3)cc2)nc2ccccc12 [Compound N137]	–	100 to 1000 nM
CC(C)(C)c1cc(NC(=O)Nc2ccc(OC/C=C/c3ccccc3Cl)cc2)no1 [Compound G26]	–	100 to 1000 nM
CC1CN(CCOc2ccc(NC(=O)Nc3cc(C(C)(C)C)on3)cc2)CCN1 (centres unmarked) [Compound G46]	–	> 10000 nM
CC(C)(C)c1cc(NC(=O)Nc2ccc(NC(=O)c3ncc[nH]3)cc2)no1 [Compound N13]	–	< 100 nM
COC(=O)c1ccc(C(=O)Nc2ccc(NC(=O)Nc3cc(C(C)(C)C)on3)cc2)nc1 [Compound N113]	–	< 100 nM
Cc1ncccc1C(=O)Nc1ccc(NC(=O)Nc2cc(C(C)(C)C)on2)cc1 [Compound N145]	–	100 to 1000 nM
CC(C)(CO)c1cc(NC(=O)Nc2ccc(Cl)cc2)on1 [Compound A22]	–	1000 to 10000 nM
CC(C)(C)c1cc(NC(=O)Nc2ccc(-c3nc(-c4cccc5ccccc45)no3)cc2)no1 [Compound P5]	–	1000 to 10000 nM
